Experimental findings from ChEMBL document CHEMBL4699583 (J Med Chem, 2020) are described below.

Series [1] concerns the target DNA topoisomerase 2-alpha (Homo sapiens, UniProt P11388). Kind of series: Inhibition of recombinant human topoisomerase 2alpha using supercoiled pBR322 DNA as substrate incubated for 60 mins by ethidium bromide dye based agarose gel electrophoresis method.
Series [2] can be described thus: Kinetic solubility of compound in PBS at pH 7.4 incubated for 24 hrs under shaking condition by UPLC-MS analysis. The format is physicochemical. The note with it: for Kinetic_solubility: buffer, pH 7.4, 24 h.
The nature of series [3]: in vitro. The following applies: mouse, liver microsomes. Background: Liver microsomes are a subcellular fraction often used to study metabolism.

Sequence of DNA topoisomerase 2-alpha (P11388 whole entry): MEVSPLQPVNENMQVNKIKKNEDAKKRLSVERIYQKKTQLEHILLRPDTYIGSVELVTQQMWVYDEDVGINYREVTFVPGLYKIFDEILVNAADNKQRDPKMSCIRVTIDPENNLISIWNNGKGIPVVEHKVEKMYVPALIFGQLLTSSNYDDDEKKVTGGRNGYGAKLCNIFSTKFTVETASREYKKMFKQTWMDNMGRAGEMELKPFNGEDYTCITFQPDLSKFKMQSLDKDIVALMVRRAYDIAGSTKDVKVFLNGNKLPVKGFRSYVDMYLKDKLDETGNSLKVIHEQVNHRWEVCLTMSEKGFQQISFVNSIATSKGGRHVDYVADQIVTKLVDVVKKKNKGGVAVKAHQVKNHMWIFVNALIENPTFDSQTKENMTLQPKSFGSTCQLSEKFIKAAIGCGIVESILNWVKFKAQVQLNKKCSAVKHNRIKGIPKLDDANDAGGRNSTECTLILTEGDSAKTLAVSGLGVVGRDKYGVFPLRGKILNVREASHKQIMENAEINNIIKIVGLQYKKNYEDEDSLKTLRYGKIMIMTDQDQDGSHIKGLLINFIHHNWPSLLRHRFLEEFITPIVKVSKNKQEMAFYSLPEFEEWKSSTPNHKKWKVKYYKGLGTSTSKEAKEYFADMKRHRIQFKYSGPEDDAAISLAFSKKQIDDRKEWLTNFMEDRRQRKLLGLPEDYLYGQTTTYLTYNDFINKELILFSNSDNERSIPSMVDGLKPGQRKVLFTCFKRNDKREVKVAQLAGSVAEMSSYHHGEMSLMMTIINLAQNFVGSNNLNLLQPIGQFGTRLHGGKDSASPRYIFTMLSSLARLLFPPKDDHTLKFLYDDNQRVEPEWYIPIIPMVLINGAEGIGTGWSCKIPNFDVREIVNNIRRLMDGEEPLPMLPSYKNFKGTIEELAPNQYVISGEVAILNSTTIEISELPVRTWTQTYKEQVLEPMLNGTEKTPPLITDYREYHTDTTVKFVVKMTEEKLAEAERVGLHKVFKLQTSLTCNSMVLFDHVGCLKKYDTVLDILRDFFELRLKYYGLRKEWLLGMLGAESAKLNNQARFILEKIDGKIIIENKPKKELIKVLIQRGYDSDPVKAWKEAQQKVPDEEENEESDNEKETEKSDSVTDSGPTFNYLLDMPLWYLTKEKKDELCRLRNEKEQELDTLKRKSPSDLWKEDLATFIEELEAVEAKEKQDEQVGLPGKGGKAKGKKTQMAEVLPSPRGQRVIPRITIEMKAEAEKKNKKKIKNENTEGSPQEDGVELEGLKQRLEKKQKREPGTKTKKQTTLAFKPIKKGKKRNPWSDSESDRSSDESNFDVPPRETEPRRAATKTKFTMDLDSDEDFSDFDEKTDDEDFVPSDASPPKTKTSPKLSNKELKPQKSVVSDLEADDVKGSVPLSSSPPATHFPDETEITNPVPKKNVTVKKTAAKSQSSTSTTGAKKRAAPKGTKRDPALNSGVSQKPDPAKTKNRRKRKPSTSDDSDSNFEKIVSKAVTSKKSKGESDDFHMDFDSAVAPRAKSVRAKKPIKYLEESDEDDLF

For `Fc1cccc(Nc2nc(-c3ccncc3)nc3c2CCCC3)c1`, in series [1], the IC50 entry is on record as “Not Active”.

Regarding `NC1CCc2nc(-c3ccncc3)nc(Nc3cccc(F)c3)c2C1` (racemic), the Kinetic_solubility in series [2] amounted to 126 µM.

With `CN(c1cccc(F)c1)c1nc(-c2ccncc2)nc2c1CC(N)CC2` (centres undefined), the IC50 entry in series [1] is on record as “Not Active”.

On to `NC1CCc2nc(-c3ccccn3)nc(Nc3cccc(F)c3)c2C1` (centres undefined), for which the IC50 entry in series [1] is on record as “Not Active”.

For `NC1CCc2nc(-c3ccncc3)nc(Nc3ccc(F)cc3)c2C1` (centres undefined), the half-life at 1 h, 4.6 µM in series [3] was over 1 h. In series [2], this compound had a Kinetic_solubility of over 250 µM.

With `NC1CCc2nc(-c3ccncc3)nc(Nc3ccccc3)c2C1` (centres undefined), in series [1], the IC50 result is “Not Active”.

Take `CN(C)c1cccc(Nc2nc(-c3ccncc3)nc3c2CC(N)CC3)c1` (centres undefined): the IC50 result in series [1] was “Not Active”.

Consider `COc1ccc(Nc2nc(-c3ccncc3)nc3c2CC(N)CC3)cc1` (centres undefined), for which the IC50 result in series [1] is given as “Not Active”.

In the case of `COc1cccc(Nc2nc(-c3ccncc3)nc3c2CC(N)CC3)c1` (centres undefined), the half-life at 1 h, 4.6 µM in series [3] was over 1 h. Moreover, in series [2], the Kinetic_solubility was over 250 µM.

As to `NC1CCc2nc(-c3ccncc3)nc(Nc3ccccc3F)c2C1` (centres undefined), the IC50 entry in series [1] was “Not Active”.

In series [3], `NC1CCc2nc(-c3cccnc3)nc(Nc3cccc(F)c3)c2C1` (centres undefined) displayed a half-life at 1 h, 4.6 µM of over 1 h. Further, in series [2] (PBS, pH 7.4, read-out: Kinetic_solubility), the solubility kinetic at 24 h was over 250 µM.

For orientation: half-life means the time in which the quantity being followed falls by half. A high value points to slow decline.
